US5674905A, “Bicyclooctane and bicycloheptane derivatives” (James Black Foundation Limited, priority 1992, dated 1997)

Columns and labels:
CCKA = target: T1, CCKA (Cavia porcellus, UniProt Q63931); test: CCKA binding assay in guinea-pig pancreas membranes ([125I]-CCK8(S)); conditions: 150 minutes at 21±3°; for Ki: 0.375 μM PD134,308, read-out: CCKA pKi (converted); for CCKA pKi: 0.375 μM PD134,308
T1 construct: The pancreatata were removed from male guinea-pigs (200-300 g; Dunkin Hartley); from tissue; host or cells: pancreas membranes of male Dunkin Hartley guinea-pigs
T1 sequence (Q63931 1-430): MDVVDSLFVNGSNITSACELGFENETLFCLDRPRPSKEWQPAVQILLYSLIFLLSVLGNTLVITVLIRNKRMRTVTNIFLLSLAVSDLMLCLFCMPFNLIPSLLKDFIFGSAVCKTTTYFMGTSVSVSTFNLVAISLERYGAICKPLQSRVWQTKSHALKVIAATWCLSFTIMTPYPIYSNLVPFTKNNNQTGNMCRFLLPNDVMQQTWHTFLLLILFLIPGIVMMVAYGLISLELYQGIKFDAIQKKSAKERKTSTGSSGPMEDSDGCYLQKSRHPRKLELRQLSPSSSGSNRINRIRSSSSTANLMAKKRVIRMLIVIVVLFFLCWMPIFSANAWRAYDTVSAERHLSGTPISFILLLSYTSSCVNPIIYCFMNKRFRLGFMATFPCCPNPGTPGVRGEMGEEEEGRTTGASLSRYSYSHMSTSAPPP
Experimental: The compounds of the examples were also tested in a CCKA binding assay as follows:
The pancreatata were removed from male guinea-pigs (200-300 g; Dunkin Hartley) and placed in ice-cold HEPES buffer (pH 7.2 @ 21±3°). The pancreatata were homogenised in 40 ml ice-cold HEPES buffer using a polytron (Brinkmann, PT10, setting 10) 4×1 second. The homogenate was centrifuged at 39,800 g for 15 min at 4°. The supernatant was discarded and the pellet re-suspended using a Teflon-in-glass homogeniser in 20 volumes of fresh buffer and re-centrifuged as above. The final pellet was re-suspended using a Teflon-in-glass homogeniser to a tissue concentration of 1 mg.ml^-1 (original wet weight), and filtered through 500 μm pore-size Nytex mesh.
The membranes (400 μl; containing 0.375 μM PD134,308) are incubated for 150 minutes at 21±3° in a final volume of 0.5 ml with HEPES buffer containing [^125 I]-CCK8 (S)(50 μl; pM) and competing compound. Total and non-specific binding of [^125 I]-CCK8 (S) are defined using 50 μl of buffer and 50 μl of 100 nM L-364,718 respectively. The assay is terminated by rapid filtration through pre-soaked Whatman GF/B filters using a Brandell Cell Harvester. The filters were washed (3×3 ml) with ice-cold 50 mM Tris HCl (pH 7.4 at 4°) and bound radioactivity is determined by counting (1 min) in a gamma counter.

gastrin receptors = target: T2, gastrin receptors (Rattus norvegicus, UniProt P30553); test: gastrin antagonist activity in an immature rat stomach assay (pentagastrin-stimulated acid secretion); conditions: isolated immature rat stomach, cumulative pentagastrin dose-response curves; for Kb: read-out: Gastrin pKB (converted)
T2 construct: from tissue; host or cells: isolated perfused whole stomach of immature rats (33-50 g, ca. 21 days old)
T2 sequence (P30553 1-452): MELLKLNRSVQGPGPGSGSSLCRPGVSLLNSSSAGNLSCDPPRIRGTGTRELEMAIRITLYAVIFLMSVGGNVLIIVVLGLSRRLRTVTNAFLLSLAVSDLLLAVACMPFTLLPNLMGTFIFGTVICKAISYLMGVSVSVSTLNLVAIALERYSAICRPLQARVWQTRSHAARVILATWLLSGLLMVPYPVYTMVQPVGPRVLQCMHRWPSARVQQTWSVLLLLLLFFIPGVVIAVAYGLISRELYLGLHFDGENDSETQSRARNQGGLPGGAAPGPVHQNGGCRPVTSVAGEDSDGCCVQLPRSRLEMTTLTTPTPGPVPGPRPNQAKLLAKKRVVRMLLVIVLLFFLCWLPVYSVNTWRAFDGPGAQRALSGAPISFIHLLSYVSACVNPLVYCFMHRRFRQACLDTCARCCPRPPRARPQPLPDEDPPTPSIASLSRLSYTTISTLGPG
Experimental: The compounds of the examples were also tested for gastrin antagonist activity in an immature rat stomach assay. The procedure was as follows:
The oesophagus of immature rats (33-50 g, ca. 21 days old) was ligated at the level of the cardiac sphincter and the duodenal sphincter was cannulated. The stomach was excised and flushed with ca. 1 ml of unbuffered physiological saline solution. The fundus was punctured and cannulated. A further 4-5 ml of unbuffered solution was flushed through the stomach to ensure the preparation was not leaking. The stomach was lowered into a jacketed organ bath containing 40 ml of buffered solution containing 3×10^-8 M 5-methyl-furmethide, maintained at 37° and gassed vigorously with 95% O2 /5% CO2. The stomach was continuously perfused at a rate of 1 ml min^-1 with unbuffered solution gassed with 100% O2 with the perfusate passing over an internally referenced pH-electrode fixed 12 cm above the stomach.
After 120 min of stabilisation the drugs were added directly to the serosal solution in the organ bath and after a further 60 min cumulative pentagastrin dose-response curves were started. Changes in acid secretion were monitored and the curves analysed according to Black et. al., Br. J. Pharmacol., 1985, 86, 581.

CCKB receptor = target: T3, CCKB receptor (Mus musculus, UniProt P56481); test: radioligand binding assay at the CCKB receptor in mouse cortical membranes ([125I]-CCK8S); conditions: 150 min at 21±3°; for Ki: read-out: CCKB pKi (converted)
T3 construct: The cortex was dissected, weighed and homogenised in 40 ml ice-cold buffer; from tissue; host or cells: cerebral cortex membranes of male CD1 mice (Charles River)
T3 sequence (P56481 1-453): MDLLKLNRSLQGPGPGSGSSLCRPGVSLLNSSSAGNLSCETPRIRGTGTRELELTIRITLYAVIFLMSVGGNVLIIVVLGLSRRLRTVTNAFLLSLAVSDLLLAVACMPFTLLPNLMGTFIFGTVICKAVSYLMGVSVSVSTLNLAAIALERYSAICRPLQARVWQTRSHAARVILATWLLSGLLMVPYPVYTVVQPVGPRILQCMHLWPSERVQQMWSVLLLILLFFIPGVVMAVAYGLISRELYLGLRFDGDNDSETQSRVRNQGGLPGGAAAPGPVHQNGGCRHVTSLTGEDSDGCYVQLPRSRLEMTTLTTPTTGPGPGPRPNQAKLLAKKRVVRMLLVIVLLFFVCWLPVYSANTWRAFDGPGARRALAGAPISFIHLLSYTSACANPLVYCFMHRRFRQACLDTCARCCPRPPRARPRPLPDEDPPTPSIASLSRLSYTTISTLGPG
In short: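 Competition binding on cortical membranes from male CD1 mice in pH 7.2 HEPES buffer with bacitracin, using [125I]-CCK8S (200 pM) and test compound, 150 min at 21±3°. Non-specific binding defined with L-365,260 ([…]). Bound radioactivity collected by filtration and gamma-counted.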

Compound	Ki (CCKA) [nM]	Kb (gastrin receptors) [nM]	Ki (CCKB receptor) [nM]	CCKA pKi (CCKA)	CCKB pKi (CCKB receptor)	Gastrin pKB (gastrin receptors; 60 min)
O=C(NCC12CC3CC(CC(C3)C1)C2)C1C2C=CC(c3ccccc32)C1C(=O)N[C@H](Cc1c[nH]c2ccccc12)C(=O)O (single isomer, unassigned) [Example 18, exo-cis-7-(2-R-(3-indolyl)-1-carboxy-ethylaminocarbonyl)-8-(1-adamantylmethylaminocarbonyl)-5,6-benzobicyclo[2.2.2]oct-2-ene]	1000	1000	794			
(±)-endo-cis-8-(1-adamantylmethylaminocarbonyl)-2-(±)-benzyl-5,6-benzobicyclo[2.2.2]octane-7-carboxylic acid [Example 36]				5.4	5.8	
endo-cis-7-(2-R-carboxy-pyrrolidinocarbonyl)-8-(1-adamantylmethylaminocarbonyl)-2-oxo-5,6-benzobicyclo[2.2.2]octane [Example 35]				4.8	5.0	
exo-cis-7-(2-R-(3-indolyl)-1-carboxy-ethylaminocarbonyl)-8-(1-adamantylmethylaminocarbonyl)-5,6-benzobicyclo[2.2.2]oct-2-ene [Example 17]				6.3	6.8	6.2

Further lines, results first:

Ki (CCKA) [nM]	Kb (gastrin receptors) [nM]	Ki (CCKB receptor) [nM]	CCKA pKi (CCKA)	CCKB pKi (CCKB receptor)	Gastrin pKB (gastrin receptors; 60 min)	Compound
3160	501	158				O=C(O)CNC(=O)[C@H]1CCCN1C(=O)C1C2c3ccccc3C(c3cc4ccccc4cc32)C1C(=O)NCC12CC3CC(CC(C3)C1)C2 (single isomer, unassigned) [Example 37, cis-7-(2R-carboxymethylaminocarbonyl-pyrrolidinocarbonyl)-8-(1-adamantylmethylaminocarbonyl)-2,3-benzo-5,6-(2,3-naphtho)bicyclo[2.2.2]octane]
7940	631	251				O=C(O)CNC(=O)[C@H]1CCCN1C(=O)C1C2c3ccccc3C(c3cc4ccccc4cc32)C1C(=O)NCC12CC3CC(CC(C3)C1)C2 (single isomer, unassigned) [Example 38, cis-7-(2R-carboxymethylaminocarbonyl-pyrrolidinocarbonyl)-8-(1-adamantylmethylaminocarbonyl)-2,3-benzo-5,6-(2,3-naphtho)bicyclo[2.2.2]octane]
10000		2000				C[C@H](NC(=O)[C@@H]1CCCN1C(=O)C1C2CCC(c3ccccc32)C1C(=O)NCC12CC3CC(CC(C3)C1)C2)C(=O)O (stereo partly drawn) [Example 43, cis-exo-7-(2S-(1S-carboxyethylaminocarbonyl)-pyrrolidinocarbonyl)-8-(1-adamantylmethylaminocarbonyl)-2,3-benzobicyclo[2.2.2]octane]
